“And” between values parts separate entries of the source, which are not always exact repeats. Equal entries are not always repeated. Where two headings read alike, the source gives them in different places.
Test system: advanced non-small-cell lung cancer patients
[1] = HER2 FISH- and/or EGFR mutation-
[2] = all 85 patients with EGFR mutation and P-Akt
[3] = all 89 patients with EGFR mutation analysis
[4] = all 98 patients with EGFR FISH and P-Akt
[5] = all 98 patients with EGFR IHC and P-Akt
[6] = all 102 patients, Example 1 analysis

Procedure: Eligibility included histologically confirmed NSCLC patients with measurable, locally advanced or metastatic disease, who had progressed or relapsed after chemotherapy, and patients ineligible for chemotherapy because they were elderly, had poor performance status, or comorbid medical condition. Before trial inclusion, smoking status was assessed and patients were classified as never, former (smoking cessation >6 months prior to trial inclusion), or current smokers (cessation <6 months before trial inclusion or active smoker).
Patients were evaluated for response according to the RECIST criteria (30). Tumor response was assessed by computer tomography scan every two months, with a confirmatory evaluation to be repeated in responding patients at least 4 weeks after the initial determination of response. […] Survival (OS) was calculated from the date of therapy initiation to the date of death or last contact.
Differences between the FISH groups were compared by Fisher's exact test or χ^2 test for qualitative variables and by t-student test or ANOVA for continuous variables. Normality of the distribution was assessed by Kolmogorov-Smirnov test. […] Risk factors associated with survival were evaluated using Cox's proportional-hazards regression model with a step-down procedure (33). Only those variables with significant results in univariate analysis were included in the multivariate analysis. The criteria for variable removal was the likelihood ratio statistic based on the maximum partial likelihood estimated (default p-value=0.10 for removal from the model).
Complete clinical information and tissue blocks were available from 80 out of 106 patients enrolled in the Akt clinical trial (Cappuzzo et al., ibid.), and from an additional 22 patients in the Expanded Access Study who were treated consecutively at the end of the Akt study and followed in the same way as patients in the Akt trial.
Eligibility for both studies included histologically confirmed NSCLC with measurable, locally advanced or metastatic disease, progressing or relapsing after chemotherapy or with medical contraindications for chemotherapy. Patients had performance status ranging from grade 0 to 2. Performance status was defined according to Eastern Cooperative Oncology Group (Oken et al., 1982) and considered grade 0 when the patient was fully active and able to perform all pre-disease activities without restriction, grade 1 when the patient was restricted in physically strenuous activity but ambulatory and able to perform work of a light or sedentary nature, and grade 2 when the patient was ambulatory and capable of all self-care but unable to perform any work activities.
Tumor response was assessed by computer tomography scan after 2 months, with a confirmatory evaluation to be repeated in responders and in patients with stable disease at least 4 weeks after the initial determination of response. […] Survival was calculated from the date of therapy initiation to the date of death or to the date of last contact.
Differences between and among groups were compared using Fisher's exact test or Pearson's chi square test for qualitative variables and using student's t test or analysis of variance for continuous variables. Normality of the distribution was assessed using the Kolmogorov-Smirnov test (Curiel et al., 1990).

For `COc1cc2ncnc(Nc3ccc(F)c(Cl)c3)c2cc1OCCCN1CCOCC1` [gefitinib], the TTP (HER2 FISH+/EGFR IHC+) was 12.3 months, the OS (HER2 FISH+/EGFR IHC-) was 3.3 months and the TTP (HER2 FISH+/EGFR IHC-) was 2.3 months. For the same compound, the DCR (HER2 FISH+/EGFR mutation+) was 87.5%, the OR (HER2 FISH+/EGFR mutation+) was 87.5% and the OS (HER2 FISH+/EGFR mutation+) was “not reached”. For the same compound, the TTP (HER2 FISH+/EGFR mutation+) was 15.5 months, the OR (HER2 FISH+/EGFR mutation-) was “no patient responded” and the TTP (HER2 FISH+/EGFR mutation-) was 2.3 months. It also gave a DCR (HER2 FISH-) of 33.3%, an OR (HER2 FISH-) of 6.4% and an OS (HER2 FISH-) of 8.4 months. For the same compound, the TTP (HER2 FISH-) was 2.7 months, the DCR (HER2 FISH- and/or EGFR FISH-) was 33.0% and the OR (HER2 FISH- and/or EGFR FISH-) was 6.8%. The “median OS” value (HER2 FISH- and/or EGFR FISH-) was 8.3 months, the “median TTP” value (HER2 FISH- and/or EGFR FISH-) was 2.6 months and the DCR (HER2 FISH- and/or EGFR IHC-) was 34.5%. For the same compound, the OR (HER2 FISH- and/or EGFR IHC-) was 7.1%, the OS (HER2 FISH- and/or EGFR IHC-) was 8.4 months and the TTP (HER2 FISH- and/or EGFR IHC-) was 2.6 months. It also gave a DCR [1] of 31.3%, an OR [1] of 5.0% and an OS [1] of 8.3. The TTP [1] was 2.6 months, the DCR (HER2 FISH-/EGFR FISH+) was 30.0% and the OR (HER2 FISH-/EGFR FISH+) was 10.0%. For the same compound, the “median OS” value (HER2 FISH-/EGFR FISH+) was 9.3 months, the “median TTP” value (HER2 FISH-/EGFR FISH+) was 5.3 months and the OR (HER2 FISH-/EGFR FISH-) was 1.6%. The “median OS” value (HER2 FISH-/EGFR FISH-) was 7.3 months, the “median TTP” value (HER2 FISH-/EGFR FISH-) was 2.6 months and the OR (HER2 FISH-/EGFR IHC+) was 11.1%. The OS (HER2 FISH-/EGFR IHC+) was 11.3 months, the TTP (HER2 FISH-/EGFR IHC+) was 4.2 months and the DCR (HER2 FISH-/EGFR IHC-) was 13.7%. It also gave an OR (HER2 FISH-/EGFR IHC-) of 0%, an OS (HER2 FISH-/EGFR IHC-) of 5.0 months and a TTP (HER2 FISH-/EGFR IHC-) of 2.1 months. For the same compound, the DCR (HER2 FISH-/EGFR mutation+) was 28.5%, the OR (HER2 FISH-/EGFR mutation+) was 14.2% and the OS (HER2 FISH-/EGFR mutation+) was 5.7. The TTP (HER2 FISH-/EGFR mutation+) was 2.8 months, the DCR (HER2 FISH-/EGFR mutation-) was 32.2% and the OR (HER2 FISH-/EGFR mutation-) was 4.8%. The “Disease Control Rate” value (Italian Cohort, Table 12) was 39%, the “Median Survival” value (Italian Cohort, Table 12) was 9 (6-11) and the “Median Time to Progression” value (Italian Cohort, Table 12) was 3 (2-4). For the same compound, the “One-YR Survival” value (Italian Cohort, Table 12) was 41% (31-51), the “Overall Response” value (Italian Cohort, Table 12) was 13% and the Disease Control Rate (P-Akt negative) was 22%. It also gave a response rate (P-Akt negative) of 0%, a time to progression (P-Akt negative) of 2.1 months and a Survival (P-Akt positive) of 11.4 months. For the same compound, the response rate (P-Akt positive) was 21%, the time to progression (P-Akt positive) was 4.2 months and the “1-year Cumulative Survival ± SD” value (adenocarcinoma) was 45 ± 7%. For the same compound, the “Median Survival” value (adenocarcinoma) was 11.3 months, the “Median Time to Progression” value (adenocarcinoma) was 3.2 months and the “Objective Response” value (adenocarcinoma) was 8/15%. For the same compound, the “Median Time to Progression” value [2] was 2.9 months, the “Objective Response” value [2] was 12/14% and the 1-year survival [3] was 41 ± 5. For the same compound, the MS [3] was 9.4 mo, the OR [3] was 12 (13%) and the TTP [3] was 2.9 mo. The “1-year Cumulative Survival ± SD” value [4] was 47 ± 6%, the “Disease Control Rate” value [4] was 40/40% and the “Median Survival” value [4] was 11.5 months. The “Median Time to Progression” value [4] was 4.5 months, the “Objective Response” value [4] was 14/14% and the “MS (median overall survival)” value (all 98 patients with EGFR IHC) was 9.5 mo. For the same compound, the “OR (objective response)” value (all 98 patients with EGFR IHC) was 14 (14%), the “PD (progressive disease)” value (all 98 patients with EGFR IHC) was 58 (59%) and the TTP (all 98 patients with EGFR IHC) was 2.9 mo. For the same compound, the “1-year Cumulative Survival ± SD” value [5] was 45 ± 6%, the “Disease Control Rate” value [5] was 40/40% and the “Median Survival” value [5] was 11.3 months. The “Median Time to Progression” value [5] was 3.2 months, the “Objective Response” value [5] was 14/14% and the “Complete response (CR)” value (all 102 patients) was 1%. For the same compound, the “Partial responses (PR)” value (all 102 patients) was 12.7%, the “% Patients without disease progression at 12 months” value [6] was 18.6% and the “Complete and Partial Response” value [6] was 13.7% and 14%. The “Disease Control Rate” value [6] was 39.2% and 39%, the “Median Time to Progression” value [6] was 2.9 months and the “One-year Survival Rate” value [6] was 45.1%. For the same compound, the “Progressive Disease” value [6] was 60.8%, the “Stable Disease” value [6] was 25.5% and the “Median Time to Progression” value (all 102 patients, Table 1) was 2.9 months. For the same compound, the “Objective Response” value (all 102 patients, Table 1) was 14% and 14/14%, the “Progressive Disease” value (all 102 patients, Table 1) was 60% and 62/60% and the “1-year Cumulative Survival ± SD” value (bronchioloalveolar) was 67 ± 16%. For the same compound, the “Median Survival” value (bronchioloalveolar) was 16.5 months, the “Median Time to Progression” value (bronchioloalveolar) was 3.0 months and the “Objective Response” value (bronchioloalveolar) was 3/33%. The “Progressive Disease” value (bronchioloalveolar) was 5/56%, the “1-year Cumulative Survival ± SD” value (current smoker) was 30 ± 6% and the “Median Survival” value (current smoker) was 4.5 months. For the same compound, the “Median Time to Progression” value (current smoker) was 2.3 months, the “Objective Response” value (current smoker) was 3/6% and the “Progressive Disease” value (current smoker) was 39/72%. The “1-year Cumulative Survival ± SD” value (female) was 48 ± 9%, the “Median Survival” value (female) was 11.3 months and the “Median Time to Progression” value (female) was 5.2 months. For the same compound, the “Progressive Disease” value (female) was 16/46%, the “median TTP” value (females, Example 1 analysis) was 4.5 months and the response rate (former and current smokers) was 20.8%. The “1-year Cumulative Survival ± SD” value (former smoker) was 55 ± 9%, the “Median Time to Progression” value (former smoker) was 3.6 months and the “Objective Response” value (former smoker) was 5/15%. The “Progressive Disease” value (former smoker) was 17/51%, the “1-year Cumulative Survival ± SD” value (large cell) was 0 ± 0% and the “Median Survival” value (large cell) was 0.8 months. For the same compound, the “Median Time to Progression” value (large cell) was 0.8 months, the “Objective Response” value (large cell) was 0% and the “Progressive Disease” value (large cell) was 2/100%. The “Median Time to Progression” value (male) was 2.7 months, the “Objective Response” value (male) was 6.0% and 4/6% and the “median TTP” value (males, Example 1 analysis) was 2.7 months. The “1-year Cumulative Survival ± SD” value (never smoker) was 47 ± 14%, the “Median Survival” value (never smoker) was 10.9 months and the “Median Time to Progression” value (never smoker) was 5.3 months. For the same compound, the “Progressive Disease” value (never smoker) was 6/40%, the “Median Time to Progression” value (performance status 0) was 2.6 months and the “Objective Response” value (performance status 0) was 5/10%. The “Progressive Disease” value (performance status 0) was 32/65%, the “1-year Cumulative Survival ± SD” value (performance status 1) was 47 ± 8% and the “Median Survival” value (performance status 1) was 10.9 months. For the same compound, the “Median Time to Progression” value (performance status 1) was 4.2 months, the “Progressive Disease” value (performance status 1) was 22/54% and the “1-year Cumulative Survival ± SD” value (performance status 2) was 22 ± 13%. For the same compound, the “Median Survival” value (performance status 2) was 2.7 months, the “Median Time to Progression” value (performance status 2) was 2.1 months and the “Objective Response” value (performance status 2) was 2/17%. The “1-year Cumulative Survival ± SD” value (squamous cell) was 22 ± 9%, the “Median Time to Progression” value (squamous cell) was 2.2 months and the “Objective Response” value (squamous cell) was 2/8%. For the same compound, the “1-year Cumulative Survival ± SD” value (stage III) was 36 ± 13%, the “Median Time to Progression” value (stage III) was 6.0 months and the “Objective Response” value (stage III) was 1/7%. The “Median Time to Progression” value (stage IV) was 2.7 months, the “Objective Response” value (stage IV) was 13/15% and the “1-year Cumulative Survival ± SD” value (undifferentiated) was 45 ± 15%. The “Median Time to Progression” value (undifferentiated) was 2.1 months and the “Objective Response” value (undifferentiated) was 1/9%.

— patent publication US9434994B2, “Methods for prediction of clinical outcome to epidermal growth factor receptor inhibitors by non-small cell lung cancer patients” (The Regents of the University of Colorado, a body corporate, priority 2004, dated 2016)
